Data published in ChEMBL document CHEMBL3400057, “Discovery of DS-5272 as a promising candidate: A potent and orally active p53-MDM2 interaction inhibitor” (Bioorg Med Chem, 2015).
Values after ≈ are worked out from the molar mass of the structure shown. Each block holds one compound with its values, some of them ahead of it. Active and inactive are the calls of the source. The rule behind the calls is not given here.

Key:
[1] = Solubility in phosphate buffer at 10 mM at pH 6.8 by HPLC analysis; format: physicochemical
[2] = Antiproliferative activity against human DLD1 cells expressing mutant p53 after 3 days by luminescent cell viability assay; format: cell-based, DLD-1
[3] = tested on: SJSA-1; assay: Antiproliferative activity against human SJSA1 cells expressing wildtype p53 after 3 days by luminescent cell viability assay; format: functional; conditions: SJSA-1, 72 h
[4] = Metabolic stability in mouse hepatic microsome assessed as compound remaining measured at 1 uM after 30 mins by LC-MS/MS analysis; format: ADME; conditions: liver microsomes, read-out: Stability
[5] = tested on: Mus musculus; assay: Toxicity in human SJSA1 cells xenografted in BALB/c SLc-nu/nu mouse assessed as body weight loss at 25 mg/kg, po compound administered from day 17 to 20 (qdx4) measured on day 25 (reference value: <0%); format: organism-based, SJSA-1; design: dose 25 mg/kg, route oral; conditions: in vivo
[6] = Plasma concentration in mouse at 50 mg/kg, po after 19 hrs; format: ADME, organism-based; design: dose 50 mg/kg, route oral
[7] = tested on: SJSA-1; assay: Antitumor activity against human SJSA1 cells xenografted in BALB/c SLc-nu/nu mouse assessed as tumor growth inhibition at 50 mg/kg, po compound administered from day 17 to 20 (qdx4) measured on day 25 (reference value: 0%); format: functional; conditions: read-out: TGI
[8] = Plasma concentration in mouse at 50 mg/kg, po after 6 hrs; format: ADME, organism-based; design: dose 50 mg/kg, route oral
[9] = Cmax in mouse at 25 mg/kg, po; format: ADME, organism-based; design: dose 25 mg/kg, route oral; conditions: in vivo
[10] = tested on: SJSA-1; assay: Antitumor activity against human SJSA1 cells xenografted in BALB/c SLc-nu/nu mouse assessed as increase in Mdm2 accumulation in tumor at 12.5 mg/kg, po single dose by Western blot analysis; format: functional, organism-based; design: dose 12.5 mg/kg
[11] = tested on: Mus musculus; assay: Toxicity in human SJSA1 cells xenografted in BALB/c SLc-nu/nu mouse assessed as body weight loss at 50 mg/kg, po compound administered from day 17 to 20 (qdx4) measured on day 25 (reference value: <0%); format: organism-based, SJSA-1; design: dose 50 mg/kg, route oral; conditions: in vivo
[12] = tested on: SJSA-1; assay: Antitumor activity against human SJSA1 cells xenografted in BALB/c SLc-nu/nu mouse assessed as tumor growth inhibition at 25 mg/kg, po compound administered from day 17 to 20 (qdx4) measured on day 25 (reference value: 0%); format: functional; conditions: read-out: TGI
[13] = Plasma concentration in mouse at 25 mg/kg, po after 6 hrs; format: ADME, organism-based; design: dose 25 mg/kg, route oral
[14] = tested on: SJSA-1; assay: Antitumor activity against human SJSA1 cells xenografted in BALB/c SLc-nu/nu mouse assessed as tumor growth inhibition at 12.5 mg/kg, po compound administered from day 17 to 20 (qdx4) measured on day 25 (reference value: 0%); format: functional; conditions: read-out: TGI
[15] = Plasma concentration in mouse at 100 mg/kg, po after 3 hrs; format: ADME, organism-based; design: dose 100 mg/kg, route oral
[16] = AUC in mouse plasma at 50 mg/kg, po; format: ADME, organism-based; design: dose 50 mg/kg, route oral
[17] = tested on: Mus musculus; assay: Toxicity in human SJSA1 cells xenografted in BALB/c SLc-nu/nu mouse assessed as body weight loss at 12.5 mg/kg, po compound administered from day 17 to 20 (qdx4) measured on day 25 (reference value: <0%); format: organism-based, SJSA-1; design: dose 12.5 mg/kg, route oral; conditions: in vivo
[18] = AUC in mouse plasma at 25 mg/kg, po; format: ADME, organism-based; design: dose 25 mg/kg, route oral
[19] = tested on: SJSA-1; assay: Antitumor activity against human SJSA1 cells xenografted in BALB/c SLc-nu/nu mouse assessed as tumor growth inhibition at 100 mg/kg, po compound administered from day 17 to 20 (qdx4) measured on day 25 (reference value: 0%); format: functional; conditions: read-out: TGI
[20] = tested on: SJSA-1; assay: Antitumor activity against human SJSA1 cells xenografted in BALB/c SLc-nu/nu mouse assessed as increase in p21 accumulation in tumor at 12.5 mg/kg, po single dose by Western blot analysis; format: functional, organism-based; design: dose 12.5 mg/kg
[21] = Cmax in mouse at 100 mg/kg, po; format: ADME, organism-based; design: dose 100 mg/kg, route oral; conditions: in vivo
[22] = Plasma concentration in mouse at 25 mg/kg, po after 3 hrs; format: ADME, organism-based; design: dose 25 mg/kg, route oral
[23] = AUC in mouse plasma at 100 mg/kg, po; format: ADME, organism-based; design: dose 100 mg/kg, route oral
[24] = Plasma concentration in mouse at 100 mg/kg, po after 6 hrs; format: ADME, organism-based; design: dose 100 mg/kg, route oral
[25] = Plasma concentration in mouse at 50 mg/kg, po after 24 hrs; format: ADME, organism-based; design: dose 50 mg/kg, route oral
[26] = Plasma concentration in mouse at 100 mg/kg, po after 19 hrs; format: ADME, organism-based; design: dose 100 mg/kg, route oral
[27] = tested on: SJSA-1; assay: Antitumor activity against human SJSA1 cells xenografted in BALB/c SLc-nu/nu mouse assessed as increase in p53 accumulation in tumor at 25 to 100 mg/kg, po single dose by Western blot analysis; format: functional, organism-based
[28] = tested on: Mus musculus; assay: Toxicity in human SJSA1 cells xenografted in BALB/c SLc-nu/nu mouse assessed as body weight loss at 100 mg/kg, po compound administered from day 17 to 20 (qdx4) measured on day 25 (reference value: <0%); format: organism-based, SJSA-1; design: dose 100 mg/kg, route oral; conditions: in vivo
[29] = Plasma concentration in mouse at 100 mg/kg, po after 24 hrs; format: ADME, organism-based; design: dose 100 mg/kg, route oral
[30] = Plasma concentration in mouse at 50 mg/kg, po after 3 hrs; format: ADME, organism-based; design: dose 50 mg/kg, route oral
[31] = tested on: SJSA-1; assay: Induction of apoptosis in human SJSA1 cells xenografted in BALB/c SLc-nu/nu mouse assessed as PARP cleavage in tumor at 12.5 mg/kg, po single dose by Western blot analysis; format: functional, organism-based; design: dose 12.5 mg/kg
[32] = Cmax in mouse at 50 mg/kg, po; format: ADME, organism-based; design: dose 50 mg/kg, route oral; conditions: in vivo

solubility [1]: 330 µg/mL (≈ 491 µM)
GI50 [3]: 660 nM
remaining at 0.5 h, 1 µM [4]: 80%
SMILES: CC(C)C1=C(C(=O)N2[C@H](C)CC[C@H]2C(=O)N2CCNC3(CC3)C2)SC2=N[C@@](C)(c3ccc(Cl)nc3)[C@@H](c3ccc(Cl)c(F)c3)N21
GI50 at 72 h [2]: > 50000 nM

solubility [1]: 720 µg/mL (≈ 1050 µM)
GI50 [3]: 240 nM
remaining at 0.5 h, 1 µM [4]: 100%
SMILES: CC(C)C1=C(C(=O)N2[C@H](C)CC[C@H]2C(=O)N2CC3(CC3)NC[C@@H]2C)SC2=N[C@@](C)(c3ccc(Cl)nc3)[C@@H](c3ccc(Cl)c(F)c3)N21
GI50 at 72 h [2]: > 50000 nM

solubility [1]: 56 µg/mL (≈ 85.8 µM)
GI50 [3]: 650 nM
remaining at 0.5 h, 1 µM [4]: 87%
SMILES: CC(C)C1=C(C(=O)N2[C@H](C)CC[C@H]2C(=O)N2CCNC3(CC3)C2)SC2=N[C@@](C)(c3ccc(Cl)cc3)[C@@H](c3ccc(Cl)cc3)N21
GI50 at 72 h [2]: 16200 nM

solubility [1]: 51 µg/mL (≈ 76 µM)
GI50 [3]: 350 nM
remaining at 0.5 h, 1 µM [4]: 85%
SMILES: CC(C)C1=C(C(=O)N2[C@H](C)CC[C@H]2C(=O)N2CCNC3(CC3)C2)SC2=N[C@@](C)(c3ccc(Cl)cc3)[C@@H](c3ccc(Cl)c(F)c3)N21
GI50 at 72 h [2]: 16700 nM

The remaining lines, values behind:

SMILES: CC(C)C1=C(C(=O)N2[C@H](C)CC[C@H]2C(=O)N2CCN(C)C3(CC3)C2)SC2=N[C@@](C)(c3ccc(Cl)cc3)[C@@H](c3ccc(Cl)cc3)N21
solubility [1]: 38 µg/mL (≈ 57 µM)
GI50 at 72 h [2]: 17200 nM
GI50 [3]: 1080 nM
remaining at 0.5 h, 1 µM [4]: 41%

SMILES: CC(C)C1=C(C(=O)N2[C@H](C)CC[C@H]2C(=O)N2CCN(C)[C@H](C)C2)SC2=N[C@@](C)(c3ccc(Cl)cc3)[C@@H](c3ccc(Cl)cc3)N21
GI50 [3]: 850 nM
remaining at 0.5 h, 1 µM [4]: 74%

SMILES: CC(C)C1=C(C(=O)N2C[C@H](F)C[C@H]2C(=O)N2CC3(CC3)NC[C@@H]2C)SC2=N[C@@](C)(c3ccc(Cl)nc3)[C@@H](c3ccc(Cl)c(F)c3)N21
solubility [1]: 640 µg/mL (≈ 928 µM)
GI50 at 72 h [2]: > 50000 nM
GI50 [3]: 26 nM
remaining at 0.5 h, 1 µM [4]: 79%

SMILES: CC[C@@H]1CNC2(CC2)CN1C(=O)[C@@H]1C[C@@H](F)CN1C(=O)C1=C(C(C)C)N2C(=N[C@@](C)(c3ccc(Cl)nc3)[C@H]2c2ccc(Cl)c(F)c2)S1
Activity [5]: 0.2%
concentration at 19 h [6]: 10 ng/mL
inhibition in vivo at 50 mg/kg [7]: 93.7%
concentration at 6 h [8]: 12400 ng/mL
Cmax [9]: 6000 ng/mL
Activity [10]: Active
Activity [11]: 0.7%
inhibition in vivo at 25 mg/kg [12]: 72.3%
concentration at 6 h [13]: 3600 ng/mL
solubility [1]: 420 µg/mL (≈ 597 µM)
inhibition in vivo at 12.5 mg/kg [14]: 29.7%
concentration at 3 h [15]: 26100 ng/mL
AUC [16]: 147 µg·h/mL
GI50 at 72 h [2]: > 50000 nM
Activity [17]: 0.2%
AUC [18]: 47.1 µg·h/mL
GI50 [3]: 170 nM
inhibition in vivo at 100 mg/kg [19]: 96.6%
Activity [20]: Active
Cmax [21]: 26100 ng/mL
concentration at 3 h [22]: 6000 ng/mL
AUC [23]: 259 µg·h/mL
concentration at 6 h [24]: 22300 ng/mL
concentration at 24 h [25]: 20 ng/mL
concentration at 19 h [26]: 160 ng/mL
remaining at 0.5 h, 1 µM [4]: 84%
Activity [27]: Active
Activity [28]: 1.2%
concentration at 24 h [29]: 10 ng/mL
concentration at 3 h [30]: 15900 ng/mL
Activity [31]: Active
Cmax [32]: 15900 ng/mL
